Results from US20110059869A1, “Method for Increasing Enzymatic Reactivity” (RIKEN, priority 2008, published 2011).

Assays:
Type in all cases: biochemical
restriction enzyme BceAI = experiment: BceAI cleavage of biotin-labeled 300 bp DNA fragments adsorbed to streptavidin beads
Method: Biotin-labeled 300 by DNA fragments adsorbed (bound) to streptavidin beads were reacted with the restriction enzyme BceAI and the final concentration of the trehalose that was added to the system was examined as follows.
PCR was conducted with biotin-labeled primers (Seq. ID Nos. 1 and 2) on 300 by DNA fragments using pFLCIII vector as template. The fragments were cleaved at the type II restriction enzyme site BceAI, releasing 50 by DNA fragments that were detected. Paramagnetic streptavidin beads were washed with accessory 1× binding buffer, recovered with a magnetic stand to remove the supernatant, and then suspended in the same buffer. Equal volumes of the PCR product-containing solution and 2× binding buffer were mixed, the bead solution was added, and the mixture was gently stirred with top to bottom inversion and rotation for 15 minutes at room temperature to induce adsorption. The magnetic stand was used to recover the sample adsorption beads, which were washed three times with 1× binding buffer. They were then washed once with 1× BceAI buffer. […] The reaction solutions were added to washed beads, mixed, and reacted for 3 hours at 37° C. The beads were recovered with the magnetic stand and cleaved with restriction enzyme. The supernatant containing the cDNA that had been released was reacted with proteinase K, treated with phenol chloroform, and precipitated from ethanol. […]

restriction enzyme PstI [1] = experiment: PstI cleavage reaction in solution (DNA fragment III); conditions: normal reaction solution, with vs without 0.6 M trehalose; three hours
Method: Biotin-labeled DNA fragment III (Seq. ID No. 6, Scheme 4) was cleaved at the restriction enzyme PstI site in solution and the 104 by DNA fragment that was released was examined. Two forms of reaction solution (DNA fragment III 500 ng, 1× PSTI buffer, 1× BSA, restriction enzyme 40 units) were prepared: a total of 50 uL trehalose (+) reaction solution to which D(+)-trehalose was added to a final concentration of 0.6 M, and a total of 50 uL trehalose (−) reaction solution, to which no trehalose was added. The reaction solutions were reacted for 3 hours at 37° C., a proteinase K reaction was conducted, phenol chloroform treatment was carried out, and precipitation from ethanol was conducted. The precipitate of the DNA fragment obtained was dissolved in 1× TE (pH 7.5) and analyzed with Bioanalyzer DNA 1000 assay (Agilent Technologies).

restriction enzyme PstI [2] = experiment: PstI cleavage reaction on a spherical bead surface (DNA fragment III); conditions: DNA adsorbed to beads, 0.6 M trehalose vs none
Method: Biotin-labeled DNA fragment III (Seq. ID No. 6, Scheme 4) was cleaved at the restriction enzyme PstI site on the surface of streptavidin beads and the 104 by DNA fragment released was examined. DNA fragment III (500 ng) and 2× binding buffer were admixed in equal volume quantities, a solution of beads suspended in 1× binding buffer was added, and the mixture was gently stirred with top to bottom inversion and rotation for 15 minutes at room temperature to induce adsorption. The beads onto which the sample had adsorbed were recovered with a magnetic stand, washed three times with 1× binding buffer, and washed once with 1× PstI buffer. Two types of reaction solution (1× PstI buffer, 1× BSA restriction enzyme 40 units) were prepared: a trehalose (+) system to which D(+)-trehalose was added to a final concentration of 0.6 M, and a trehalose (−) system to which no trehalose was added. Each of the reaction solutions was admixed to beads that had been washed and the mixtures were reacted for three hours at 37° C. The beads were recovered with the magnetic stand and cleaved with restriction enzyme. […] The precipitate of DNA fragments obtained was dissolved in 1× TE (pH 7.5) and analyzed with Bioanalyzer DNA 1000 assay (Agilent Technologies).

DNA polymerase = experiment: Solexa sequencing system, cluster amplification reaction on DNA-immobilized chip; conditions: for num of CAGE tag / num of sequence read: trehalose 0.6 M in cluster amplification
Method: The Solexa sequencing system incorporates the steps of adsorbing, immobilizing, and amplifying a DNA template on a flat chip. An examination was conducted to see how the sequence analysis level would change due to the addition of trehalose in the template amplification reaction of the Solexa sequencing system.
In the process of the Solexa sequencing system, attention was focused on the cluster amplification reaction conducted on a DNA-immobilized chip. In this reaction, DNA immobilized on the chip was amplified with DNA polymerase to obtain identical fragments referred to as a cluster (Scheme 9). Amplification was conducted by adding trehalose to the reaction solution to a final concentration of 0.6 M, and a comparison was made with the results obtained when no trehalose was added (FIG. 10). The sample employed here was a 27 by DNA fragment that had been prepared by the CAGE method (obtained by cleaving just 27 by off of the 5′ end of cDNA).
In the same manner as in 10 above, trehalose was added to a final concentration of 0.3 M to a reaction solution and amplification was conducted in a Solexa sequencing system. The results were compared to those obtained when no trehalose was added. The samples employed, prepared by the CAGE method (obtained by cleaving just 27 by off the 5′ end of the cDNA), were different 27 by DNA fragments than those in 10 above.

[3] = 0.3 M trehalose in cluster amplification vs none

OC[C@H]1O[C@H](O[C@H]2O[C@H](CO)[C@@H](O)[C@H](O)[C@H]2O)[C@H](O)[C@@H](O)[C@@H]1O [trehalose, D(+)-trehalose]
change in yield of 50 by fragments with trehalose concentration (restriction enzyme BceAI; 0 M, 0.3 M, 0.6 M, and 0.8 M trehalose): No change was observed beyond 0.6 M
yield of 50 by fragments released by cleavage (restriction enzyme BceAI; trehalose added vs not added, beads, 3 hours at 37° C.): increased
yield of released DNA fragment (restriction enzyme PstI [1]): the same yield
yield of released DNA fragment (restriction enzyme PstI [2]): higher yield
fluorescence intensity of each base in the CAGE samples (DNA polymerase; [3]): higher level of fluorescence intensity
sequence level (DNA polymerase; [3]): increased
length of the sequence that was determined (DNA polymerase; 0.6 M trehalose vs none): increased
regions prepared by the CAGE method (CAGE tag) among DNA fragments analyzed (DNA polymerase; 0.6 M trehalose vs none): more regions prepared by the CAGE method (the CAGE tag) were contained
fluorescence intensity of each base (DNA polymerase; 0.6 M trehalose, data not shown): strongly displayed
num of CAGE tag (DNA polymerase; region s1): 196840
num of sequence read (DNA polymerase; region s1): 252820
num of CAGE tag (DNA polymerase; region s2): 421412
num of sequence read (DNA polymerase; region s2): 523387
num of CAGE tag (DNA polymerase; region s3): 540268
num of sequence read (DNA polymerase; region s3): 648786
num of CAGE tag (DNA polymerase; region s5): 317440
num of sequence read (DNA polymerase; region s5): 392534
num of CAGE tag (DNA polymerase; region s6): 627739
num of sequence read (DNA polymerase; region s6): 728614
num of CAGE tag (DNA polymerase; region s7): 798438
num of sequence read (DNA polymerase; region s7): 904101
num of CAGE tag (DNA polymerase; total of regions): 2902137
num of sequence read (DNA polymerase; total of regions): 3450242
